In patent US7517874B2 (priority 2007, dated 2009):
Read-outs that look alike come from different tables or passages of the source.

How the values were obtained:
[1] = target: human CB1 receptor (hCB1) (Homo sapiens, UniProt P21554); experiment: cell-based; assay type: cell-based
Outline: (§1)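 Readout: LANCE TR-FRET cAMP, back-calculated from a concurrent standard curve and scaled between forskolin-only and forskolin + 1 μM CP55,940 wells. EC50 and intrinsic activity came from four-parameter fits.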

rat CB2 receptor (rCB2) = target: T1, rat CB2 receptor (rCB2) (Rattus norvegicus, UniProt Q9QZN9); experiment: cell-based; assay type: cell-based; conditions: for +/− RCB2: agonist or inverse agonist at rCB2
T1 sequence (Q9QZN9 1-360): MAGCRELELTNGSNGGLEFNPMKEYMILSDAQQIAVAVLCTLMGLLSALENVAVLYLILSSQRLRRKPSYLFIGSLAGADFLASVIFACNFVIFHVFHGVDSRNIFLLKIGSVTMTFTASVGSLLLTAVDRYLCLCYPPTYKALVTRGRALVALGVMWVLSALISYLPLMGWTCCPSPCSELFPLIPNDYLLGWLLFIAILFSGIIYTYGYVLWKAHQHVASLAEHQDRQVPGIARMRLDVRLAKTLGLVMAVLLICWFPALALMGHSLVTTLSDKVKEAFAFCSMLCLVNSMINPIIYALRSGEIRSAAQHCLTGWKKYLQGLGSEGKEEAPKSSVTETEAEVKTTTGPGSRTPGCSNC
Outline: as §1

[2] = groups >100 nM-10 μM and >10 μM, cAMP, CHO-K1 hCB1, read-out: EC50 HCB1

Chain of human CB1 receptor (hCB1) (P21554 whole entry): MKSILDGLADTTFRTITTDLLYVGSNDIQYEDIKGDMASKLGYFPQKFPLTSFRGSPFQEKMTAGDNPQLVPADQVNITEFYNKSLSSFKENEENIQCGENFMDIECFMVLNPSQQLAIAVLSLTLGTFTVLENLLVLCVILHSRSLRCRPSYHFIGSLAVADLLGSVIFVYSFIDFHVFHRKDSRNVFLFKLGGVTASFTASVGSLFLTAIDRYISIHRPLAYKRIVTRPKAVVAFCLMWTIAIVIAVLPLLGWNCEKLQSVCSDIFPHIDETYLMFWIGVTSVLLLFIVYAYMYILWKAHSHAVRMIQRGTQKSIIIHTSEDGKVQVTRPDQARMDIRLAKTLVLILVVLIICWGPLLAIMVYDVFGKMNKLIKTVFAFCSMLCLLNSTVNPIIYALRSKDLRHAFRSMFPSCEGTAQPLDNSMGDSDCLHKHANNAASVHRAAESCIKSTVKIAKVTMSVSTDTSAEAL

Row | Compound | EC50 [1] [nM] | +/− RCB2 (rat CB2 receptor (rCB2)) | EC50 [1, 2] [nM] | EC50 (rat CB2 receptor (rCB2); groups >100 nM-10 μM and >10 μM, cAMP, CHO-K1 rCB2, read-out: EC50 RCB2) [nM] | EC50 (rat CB2 receptor (rCB2)) [nM]
1 | CC(C)CN1CCn2c(-c3ccc(Cl)cc3)nc(C(=O)N[C@H](CO)C(C)(C)C)c2C1 [Compound 160, (S)-3-(4-chlorophenyl)-N-(1-hydroxy-3,3-dimethylbutan-2-yl)-7-isobutyl-5,6,7,8-tetrahydroimidazo[1,5-a]pyrazine-1-carboxamide] | > 10000 | − |  |  | 
2 | CCN1CCn2c(-c3ccc(Cl)cc3)nc(C(=O)N[C@H](CO)C(C)(C)C)c2C1 [Compound 161, (S)-3-(4-chlorophenyl)-7-ethyl-N-(1-hydroxy-3,3-dimethylbutan-2-yl)-5,6,7,8-tetrahydroimidazo[1,5-a]pyrazine-1-carboxamide] | > 10000 | − |  |  | 
3 | CC(C)(C)[C@@H](CO)NC(=O)c1nc(-c2ccc(Cl)cc2)n2c1CN(CCO)CC2 [Compound 162, (S)-3-(4-chlorophenyl)-N-(1-hydroxy-3,3-dimethylbutan-2-yl)-7-(2-hydroxyethyl)-5,6,7,8-tetrahydroimidazo[1,5-a]pyrazine-1-carboxamide] | > 10000 | − |  |  | 
4 | CC(C)CN1CCn2c(-c3ccccc3)nc(C(=O)N[C@H](C)C3CCCCC3)c2C1 [Compound 163, (R)-N-(1-cyclohexylethyl)-7-isobutyl-3-phenyl-5,6,7,8-tetrahydroimidazo[1,5-a]pyrazine-1-carboxamide] | > 10000 | − |  |  | 
5 | CCN1CCn2c(-c3ccccc3)nc(C(=O)N[C@H](C)C3CCCCC3)c2C1 [Compound 164, (R)-N-(1-cyclohexylethyl)-7-ethyl-3-phenyl-5,6,7,8-tetrahydroimidazo[1,5-a]pyrazine-1-carboxamide] | > 10000 | − |  |  | 
6 | CC(C)CN1CCn2c(-c3ccccc3)nc(C(=O)NC3CCCCC3)c2C1 [Compound 165, N-cyclohexyl-7-isobutyl-3-phenyl-5,6,7,8-tetrahydroimidazo[1,5-a]pyrazine-1-carboxamide] | > 10000 | − |  |  | 
7 | O=C(NC1CCCCC1)c1nc(-c2ccccc2)n2c1CN(CCO)CC2 [Compound 166, N-cyclohexyl-7-(2-hydroxyethyl)-3-phenyl-5,6,7,8-tetrahydroimidazo[1,5-a]pyrazine-1-carboxamide] |  | − | > 10000 |  | 
8 | CC(C)CN1CCn2c(-c3ccccc3)nc(C(=O)NCC3CCOCC3)c2C1 [Compound 167, 7-isobutyl-3-phenyl-N-((tetrahydro-2H-pyran-4-yl)methyl)-5,6,7,8-tetrahydroimidazo[1,5-a]pyrazine-1-carboxamide] | > 10000 | − |  |  | 
9 | CCN1CCn2c(-c3ccccc3)nc(C(=O)NCC3CCOCC3)c2C1 [Compound 168, 7-ethyl-3-phenyl-N-((tetrahydro-2H-pyran-4-yl)methyl)-5,6,7,8-tetrahydroimidazo[1,5-a]pyrazine-1-carboxamide] | > 10000 | − |  |  | 
10 | O=C(NCC1CCOCC1)c1nc(-c2ccccc2)n2c1CN(CCO)CC2 [Compound 169, 7-(2-hydroxyethyl)-3-phenyl-N-((tetrahydro-2H-pyran-4-yl)methyl)-5,6,7,8-tetrahydroimidazo[1,5-a]pyrazine-1-carboxamide] |  | − | > 10000 |  | 
11 | CC(=O)N1CCn2c(-c3ccccc3)nc(C(=O)N[C@H](C)C3CCCCC3)c2C1 [Compound 170, (R)-7-acetyl-N-(1-cyclohexylethyl)-3-phenyl-5,6,7,8-tetrahydro-imidazo[1,5-a]pyrazine-1-carboxamide] | > 10000 | − |  |  | 
12 | CC(C)NC(=O)N1CCn2c(-c3ccccc3)nc(C(=O)NC3C4(C)CCC(C4)C3(C)C)c2C1 (stereo not shown) [Compound 171, N7-isopropyl-3-phenyl-N1-(1,3,3-trimethylbicyclo[2.2.1]heptan-2-yl)-5,6-dihydroimidazo[1,5-a]pyrazine-1,7(8H)-dicarboxamide] | > 10000 | − |  |  | 
13 | CC(=O)N1CCn2c(-c3ccccc3)nc(C(=O)N[C@@H](C)c3ccccc3)c2C1 [Compound 172, (S)-7-acetyl-3-phenyl-N-(1-phenylethyl)-5,6,7,8-tetrahydroimidazo[1,5-a]pyrazine-1-carboxamide] | > 10000 | + |  |  | 
14 | CC(=O)N1CCn2c(-c3ccccc3)nc(C(=O)Nc3ccccc3)c2C1 [Compound 173, 7-acetyl-N,3-diphenyl-5,6,7,8-tetrahydroimidazo[1,5-a]pyrazine-1-carboxamide] |  |  | > 10000 | > 10000 | 
15 | CNC(=O)[C@@H](NC(=O)c1nc(-c2ccccc2)n2c1CN(C(C)=O)CC2)C(C)(C)C [Compound 174, (S)-7-acetyl-N-(3,3-dimethyl-1-(methylamino)-1-oxobutan-2-yl)-3-phenyl-5,6,7,8-tetrahydroimidazo[1,5-a]pyrazine-1-carboxamide] | > 10000 | + |  |  | 
16 | CC(=O)N1CCn2c(-c3ccccc3)nc(C(=O)NN3CCCCC3)c2C1 [Compound 175, 7-acetyl-3-phenyl-N-(piperidin-1-yl)-5,6,7,8-tetrahydroimidazo[1,5-a]pyrazine-1-carboxamide] | > 10000 |  |  |  | > 10000
17 | CC(=O)N1CCn2c(-c3ccccc3)nc(C(=O)NCC3CCOCC3)c2C1 [Compound 176, 7-acetyl-3-phenyl-N-((tetrahydro-2H-pyran-4-yl)methyl)-5,6,7,8-tetrahydroimidazo[1,5-a]pyrazine-1-carboxamide] | > 10000 |  |  |  | > 10000
18 | CC(=O)N1CCn2c(-c3ccccc3)nc(C(=O)NC3CCCCC3)c2C1 [Compound 177, 7-acetyl-N-cyclohexyl-3-phenyl-5,6,7,8-tetrahydroimidazo[1,5-a]pyrazine-1-carboxamide] | > 10000 | − |  |  | 
19 | COC(=O)N1CCn2c(-c3ccccc3)nc(C(=O)NC3C4(C)CCC(C4)C3(C)C)c2C1 (stereo not shown) [Compound 178, methyl 3-phenyl-1-(1,3,3-trimethylbicyclo[2.2.1]heptan-2-ylcarbamoyl)-5,6-dihydroimidazo[1,5-a]pyrazine-7(8H)-carboxylate] | > 10000 | − |  |  | 
20 | COC(=O)N1CCn2c(-c3ccccc3)nc(C(=O)N[C@@H](C)c3ccccc3)c2C1 [Compound 179, (S)-methyl 3-phenyl-1-(1-phenylethylcarbamoyl)-5,6-dihydroimidazo[1,5-a]pyrazine-7(8H)-carboxylate] | > 10000 | − |  |  | 
21 | CNC(=O)[C@@H](NC(=O)c1nc(-c2ccccc2)n2c1CN(C(=O)OC)CC2)C(C)(C)C [Compound 180, (S)-methyl 1-(3,3-dimethyl-1-(methylamino)-1-oxobutan-2-ylcarbamoyl)-3-phenyl-5,6-dihydroimidazo[1,5-a]pyrazine-7(8H)-carboxylate] | > 10000 | − |  |  | 
22 | COC(=O)N1CCn2c(-c3ccccc3)nc(C(=O)Nc3ccccc3)c2C1 [Compound 181, methyl 3-phenyl-1-(phenylcarbamoyl)-5,6-dihydroimidazo[1,5-a]pyrazine-7(8H)-carboxylate] |  | − | > 10000 |  | 
23 | COC(=O)N1CCn2c(-c3ccccc3)nc(C(=O)NN3CCCCC3)c2C1 [Compound 182, methyl 3-phenyl-1-(piperidin-1-ylcarbamoyl)-5,6-dihydroimidazo[1,5-a]pyrazine-7(8H)-carboxylate] |  | − | > 10000 |  | 
24 | COC(=O)N1CCn2c(-c3ccc(Cl)cc3)nc(C(=O)NCCC(C)C)c2C1 [Compound 183, methyl 3-(4-chlorophenyl)-1-(isopentylcarbamoyl)-5,6-dihydroimidazo[1,5-a]pyrazine-7(8H)-carboxylate] | > 10000 | − |  |  | 
25 | COC(=O)N1CCn2c(-c3ccc(Cl)cc3)nc(C(=O)N[C@H](CO)C(C)(C)C)c2C1 [Compound 184, (S)-methyl 3-(4-chlorophenyl)-1-(1-hydroxy-3,3-dimethylbutan-2-ylcarbamoyl)-5,6-dihydroimidazo[1,5-a]pyrazine-7(8H)-carboxylate] | > 10000 | − |  |  | 
26 | COC(=O)N1CCn2c(-c3ccccc3)nc(C(=O)N[C@H](C)C3CCCCC3)c2C1 [Compound 185, (R)-methyl 1-(1-cyclohexylethylcarbamoyl)-3-phenyl-5,6-dihydroimidazo[1,5-a]pyrazine-7(8H)-carboxylate] | > 10000 | − |  |  | 
27 | COC(=O)N1CCn2c(-c3ccccc3)nc(C(=O)NCC3CCOCC3)c2C1 [Compound 186, methyl 3-phenyl-1-((tetrahydro-2H-pyran-4-yl)methylcarbamoyl)-5,6-dihydroimidazo[1,5-a]pyrazine-7(8H)-carboxylate] | > 10000 | − |  |  | 
28 | COC(=O)N1CCn2c(-c3ccccc3)nc(C(=O)NC3CCCCC3)c2C1 [Compound 187, methyl 1-(cyclohexylcarbamoyl)-3-phenyl-5,6-dihydroimidazo[1,5-a]pyrazine-7(8H)-carboxylate] |  | − | > 10000 |  | 
29 | CNC(=O)[C@@H](NC(=O)c1nc(-c2ccccc2)n2c1CN(C(=O)CC(C)(C)C)CC2)C(C)(C)C [Compound 188, (S)-N-(3,3-dimethyl-1-(methylamino)-1-oxobutan-2-yl)-7-(3,3-dimethylbutanoyl)-3-phenyl-5,6,7,8-tetrahydroimidazo[1,5-a]pyrazine-1-carboxamide] | > 10000 | − |  |  | 
